target: T1, Alkanal monooxygenase alpha chain (Vibrio harveyi, UniProt P07740); test: AI-2 quorum sensing inhibitors, bioluminescence, confirmation, luminescence, dose retest, Vibrio harveyi (AID 2735)
T1 sequence (P07740 whole entry): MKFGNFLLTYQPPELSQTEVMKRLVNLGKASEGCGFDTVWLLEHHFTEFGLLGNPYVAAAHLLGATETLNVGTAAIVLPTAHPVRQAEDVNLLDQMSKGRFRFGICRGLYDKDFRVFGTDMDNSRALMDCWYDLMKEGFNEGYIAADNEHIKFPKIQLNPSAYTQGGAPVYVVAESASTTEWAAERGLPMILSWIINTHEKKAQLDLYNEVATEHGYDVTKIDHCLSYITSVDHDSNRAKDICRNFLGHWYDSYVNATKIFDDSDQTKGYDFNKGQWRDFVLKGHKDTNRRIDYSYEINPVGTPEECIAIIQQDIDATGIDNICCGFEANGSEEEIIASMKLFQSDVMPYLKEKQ

Structure (SMILES)	EC50 [µM]
C=Cn1c(C(=O)O)ccc1-c1ccc(CC)cc1	25.8
Cc1cccc(NS(=O)(=O)c2ccc(Oc3ccccc3)cc2)n1 [SMR000071466]	12.5
CCc1ccc(S(=O)(=O)Nc2ccc(Br)cn2)cc1 [MLS001211346]	18.1
CN(C)S(=O)(=O)c1ccc(NC(=S)NC(=O)Cc2ccccc2)cc1 [N-[[4-(dimethylsulfamoyl)phenyl]carbamothioyl]-2-phenyl-ethanamide]	> 160
Cn1cnc(S(=O)(=O)Nc2ccc(OC(F)(F)F)cc2)c1 [SMR000314513]	24.5
COc1cc(NC(=O)CN2C(=O)NC(c3ccccc3)(c3ccccc3)C2=O)cc(OC)c1 [MLS001176525]	10
CCCc1ccc(S(=O)(=O)N(C)S(=O)(=O)c2ccc(F)cc2)cc1 [N-(4-fluorophenyl)sulfonyl-N-methyl-4-propylbenzenesulfonamide]	8.81
